Test results: patent publication US20260248087A1, “GENERATING DOUBLED HAPLOID PLANTS” (Syngenta Crop Protection AG, priority 2023, published 2026)
Several values for one entry are separate records, joined by “and”; a condition that tells them apart may be missing. Equal values may be shown once.

What was measured:
[1] = test system: corn embryos; experiment: Uptake of metcamifen and metabolism of colchicine in corn embryos (LCMS); format: in vitro ADME; settings: 500 ppm colchicine, corn embryos
Experimental: An experiment was completed to evaluate the uptake of metcamifen into corn embryos, whether colchicine is metabolized in the embryos, and if metcamifen increased the rate of colchicine metabolism. Corn embryos were co-treated with 500 ppm colchicine in the presence of 200 ppm, 1000 ppm or no metcamifen (control) for 24 or 48 hours and frozen. One biological replicate was represented by five embryos, and three biological replicates were used per co-treatment.
Prior to extraction, embryos were washed for 20 seconds in 80:20 (v/v) acetonitrile:H2O to remove any colchicine and metcamifen on the surface. Each replicate was extracted in 0.5 ml methanol using a fast prep maceration method. Then, samples were diluted 1 in 10 prior to analysis by Liquid Chromatography Mass Spectrometry (LCMS). Samples were analyzed alongside matrix matched standards of colchicine and metcamifen. Metabolite investigations were performed to identify any metabolites.

[2] = test system: isolated embryos; experiment: Potting and transplant rate, co-treatment with benoxacor or dichlormid during colchicine treatment; format: in vivo, maize
From the text: As used herein, the term “potted rate” or “potting rate” refers to the percent of germinated embryos successfully transferred to soil from total treated haploid embryos. The “potted rate” is used as an indication of plant health in monitoring the success of recovery and growth after treatment of haploids. As used herein, the term “transplant rate” refers to the survival of healthy plants after embryos were germinated and transferred to soil.
Benoxacor was applied to isolated embryos of 2 genoytypes, with 2 replicates at levels of 0, 20, 50, 100 or 200 mg/L during colchicine treatment in the doubling media. The co-treatments were incubated for durations of 24 or 48 hours. […] None of the 48-hour co-treatments performed better than the equivalent co-treatment at 24 hours (see Table 18).
Dichlormid was applied to isolated embryos from 2 genotypes, with 2 replicates at levels of 0, 20, 50, 100, 200 and 300 mg/L during colchicine treatment in the doubling media. The co-treatments were incubated for durations of 24 or 48 hours. […] The highest percent transplanted rates were 92% and 88% for co-treatments 100 mg/L and 50 mg/L both at 24 hours, respectively. None of the 48-hour co-treatments performed better than the equivalent co-treatment at 24 hours (see Table 19).

COc1cc2c(c(OC)c1OC)-c1ccc(OC)c(=O)cc1[C@@H](NC(C)=O)CC2 [colchicine]
amount of colchicine recovered after 48 hours relative to 24 hours [1]: double

CC1COc2ccccc2N1C(=O)C(Cl)Cl (stereo not shown) [Benoxacor, benoxacor]
Potting Rate Mean ([2]; benoxacor 20 mg/L, 24 hours): 79%
Potting Rate Mean ([2]; benoxacor 50 mg/L, 24 hours): 90%
Potting Rate Mean ([2]; benoxacor 50 mg/L, 48 hours): 40%
Potting Rate Mean ([2]; benoxacor 100 mg/L, 24 hours): 79%
Potting Rate Mean ([2]; benoxacor 100 mg/L, 48 hours): 60%
Potting Rate Mean ([2]; benoxacor 200 mg/L, 48 hours): 74%

C=CCN(CC=C)C(=O)C(Cl)Cl [Dichlormid, dichlormid]
Potting Rate Mean ([2]; dichlormid 20 mg/L, 24 hours): 89%
Transplant Rate Mean ([2]; dichlormid 20 mg/L, 24 hours): 86%
Potting Rate Mean ([2]; dichlormid 50 mg/L, 24 hours): 90% and 91%
Transplant Rate Mean ([2]; dichlormid 50 mg/L, 24 hours): 88% and 89%
Potting Rate Mean ([2]; dichlormid 100 mg/L, 24 hours): 96% and 97%
Transplant Rate Mean ([2]; dichlormid 100 mg/L, 24 hours): 92%
Potting Rate Mean ([2]; dichlormid 100 mg/L, 48 hours): 70%
Transplant Rate Mean ([2]; dichlormid 100 mg/L, 48 hours): 70%
Potting Rate Mean ([2]; dichlormid 200 mg/L, 48 hours): 86%
Transplant Rate Mean ([2]; dichlormid 200 mg/L, 48 hours): 84%
Potting Rate Mean ([2]; dichlormid 300 mg/L, 48 hours): 95%
Transplant Rate Mean ([2]; dichlormid 300 mg/L, 48 hours): 93%
